# In patent US8410310B2, “Trypsin-like serine protease inhibitors, and their preparation and use” (The Medicines Company (Leipzig) GmbH, priority 2006, dated 2013):
# Like-named read-outs stand apart in the source and are kept apart here.
# Legend:
# Type in all cases: biochemical
# [1] = biological target: Xa (Homo sapiens, UniProt P00742); assay: Determination of inhibition constants for Xa
# Procedure: (§1) The inhibitory effect for the individual enzymes was determined in analogy to a previously disclosed method (Stürzebecher et al., 1997).
# (§2) For zero order kinetics, the reaction was stopped after 20 min by adding 25 μl of acetic acid (50% v/v), and the absorption at 405 nm was determined using a Microplate Reader (Multiscan Ascent, from Thermo). In the case of pseudo-first order kinetics, the reaction rates in the equilibrium state were ascertained by recording the reaction kinetics. The Ki values were ascertained either in accordance with Dixon (1953) by linear regression using a computer program or by parameter fitting in accordance with the rate equation for competitive inhibition. The Ki values are the average of at least two determinations.
# [2] = biological target: Thrombin (Homo sapiens, UniProt P00734); assay: Determination of inhibition constants for thrombin
# Procedure: as §1, §2
# [3] = biological target: plasmin (Homo sapiens, UniProt P00747); assay: Determination of inhibition constants for plasmin; design: purchased Calbiochem
# plasmin, sequence (P00747 581-810 limits assumed): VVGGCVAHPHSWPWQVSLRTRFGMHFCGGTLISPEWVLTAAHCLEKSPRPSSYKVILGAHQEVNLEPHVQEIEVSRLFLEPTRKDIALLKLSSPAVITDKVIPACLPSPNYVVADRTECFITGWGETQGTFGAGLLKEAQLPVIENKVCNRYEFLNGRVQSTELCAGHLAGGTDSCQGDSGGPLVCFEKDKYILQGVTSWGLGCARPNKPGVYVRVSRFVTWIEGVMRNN
# plasmin, sequence (P00747 97-580 partner limits assumed): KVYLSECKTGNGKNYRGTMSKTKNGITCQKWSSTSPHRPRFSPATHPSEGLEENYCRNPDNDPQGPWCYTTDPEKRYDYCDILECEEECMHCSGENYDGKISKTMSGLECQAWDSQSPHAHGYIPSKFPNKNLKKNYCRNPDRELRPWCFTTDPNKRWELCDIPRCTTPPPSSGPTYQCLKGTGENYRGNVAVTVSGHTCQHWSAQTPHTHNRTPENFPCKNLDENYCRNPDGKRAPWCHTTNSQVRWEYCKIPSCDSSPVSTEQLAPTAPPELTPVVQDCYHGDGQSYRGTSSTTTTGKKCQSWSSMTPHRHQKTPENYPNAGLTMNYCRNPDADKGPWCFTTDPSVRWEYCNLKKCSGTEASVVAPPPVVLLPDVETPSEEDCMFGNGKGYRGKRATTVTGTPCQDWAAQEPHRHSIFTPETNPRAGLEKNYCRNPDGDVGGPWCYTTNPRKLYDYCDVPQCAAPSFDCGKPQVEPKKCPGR
# Procedure: as §1, §2
# [4] = biological target: plasma kallikrein (Homo sapiens, UniProt P03952); assay: Determination of inhibition constants for PK; design: purchased Enzyme Research Lab. / Enzyme Research Laboratories
# plasma kallikrein, sequence (P03952 391-638 limits assumed): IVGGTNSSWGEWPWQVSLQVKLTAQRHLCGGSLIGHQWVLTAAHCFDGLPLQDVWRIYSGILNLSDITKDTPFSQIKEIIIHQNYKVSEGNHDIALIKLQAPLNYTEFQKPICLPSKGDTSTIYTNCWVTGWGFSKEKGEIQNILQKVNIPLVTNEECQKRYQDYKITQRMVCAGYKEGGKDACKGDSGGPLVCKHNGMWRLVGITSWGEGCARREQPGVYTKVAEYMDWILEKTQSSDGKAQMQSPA
# plasma kallikrein, sequence (P03952 20-390 partner limits assumed): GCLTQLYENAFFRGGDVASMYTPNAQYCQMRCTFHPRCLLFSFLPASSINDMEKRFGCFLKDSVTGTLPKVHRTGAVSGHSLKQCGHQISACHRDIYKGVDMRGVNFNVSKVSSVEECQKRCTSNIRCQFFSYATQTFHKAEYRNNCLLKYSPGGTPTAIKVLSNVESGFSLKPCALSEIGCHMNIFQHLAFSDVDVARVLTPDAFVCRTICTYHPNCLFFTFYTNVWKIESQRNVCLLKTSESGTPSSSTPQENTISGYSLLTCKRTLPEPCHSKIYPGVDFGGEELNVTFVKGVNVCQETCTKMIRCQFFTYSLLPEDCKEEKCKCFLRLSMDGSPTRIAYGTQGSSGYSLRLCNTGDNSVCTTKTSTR
# Procedure: as §1, §2
# [5] = 25° C., substrate Chromozym PL, pH 8.0, read-out: Plasmin [Ki]
# [6] = 25° C., substrate S2302, pH 8.0, read-out: PK [Ki]
# [7] = summary of results, read-out: Ki value of the plasmin inhibition
# [8] = summary of results, read-out: Ki value of the plasma kallikrein inhibition
# Xa, sequence (P00742 235-488 limits assumed): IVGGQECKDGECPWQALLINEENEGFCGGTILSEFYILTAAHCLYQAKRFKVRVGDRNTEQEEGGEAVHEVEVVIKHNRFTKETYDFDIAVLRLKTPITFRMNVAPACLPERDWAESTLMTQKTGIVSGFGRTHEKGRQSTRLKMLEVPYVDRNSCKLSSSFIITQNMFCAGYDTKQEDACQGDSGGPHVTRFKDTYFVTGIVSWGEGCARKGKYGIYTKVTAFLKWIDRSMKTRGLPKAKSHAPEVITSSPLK
# Xa, sequence (P00742 41-179 limits assumed): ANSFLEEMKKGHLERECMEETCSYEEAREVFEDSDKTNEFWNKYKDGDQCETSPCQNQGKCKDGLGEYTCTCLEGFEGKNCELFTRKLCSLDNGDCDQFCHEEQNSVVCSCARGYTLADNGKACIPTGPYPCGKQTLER
Compound,Ki [1] [nM],Ki [2] [nM],"Ki [3, 5] [nM]","Ki [4, 6] [nM]","Ki [3, 7] [nM]","Ki [4, 8] [nM]"
N=C(N)c1ccc(CNC(=O)[C@H](Cc2cccc(CN)c2)NC(=O)[C@@H](CCc2ccc(O)cc2)NS(=O)(=O)Cc2ccccc2)cc1 [compound 24],< 10,< 1000,< 10,< 10,–,–
Cc1ccc(CCC[C@@H](NS(=O)(=O)Cc2ccccc2)C(=O)N[C@@H](Cc2cccc(CN)c2)C(=O)NCc2ccc(C(=N)N)cc2)cc1 [compound 9],< 100,< 1000,< 10,< 10,–,–
N#Cc1cccc(C[C@@H](NS(=O)(=O)Cc2ccccc2)C(=O)N[C@@H](CCc2ccncc2)C(=O)NCc2ccc(C(=N)N)cc2)c1 [compound 45],< 1000,< 100,< 10,< 10,–,–
N=C(N)c1ccc(CNC(=O)[C@H](Cc2cccc(CN)c2)NC(=O)[C@@H](CO)NS(=O)(=O)Cc2ccccc2)cc1 [compound 72],–,–,–,< 100,–,–
N=C(N)c1ccc(CNC(=O)[C@H](CCc2ccc(CN)cc2)NC(=O)[C@@H](CC2CCCCC2)NS(=O)(=O)Cc2ccccc2)cc1 [compound 37],< 100,< 100,< 100,< 100,–,–
N=C(N)c1ccc(CNC(=O)[C@H](CCc2ccncc2)NC(=O)[C@@H](CCCc2ccccc2)NS(=O)(=O)Cc2ccccc2)cc1 [compound 39],< 100,< 10,< 10,< 10,< 5,< 1
N=C(N)c1ccc(CNC(=O)[C@H](Cc2cccc(CN)c2)NC(=O)[C@@H](CCCC2CCCCC2)NS(=O)(=O)Cc2ccccc2)cc1 [compound 21],< 100,< 1000,< 10,< 10,–,–
"N=C(N)Nc1ccc(CNC(=O)[C@H](Cc2cccc(CN)c2)NC(=O)[C@@H](CCCc2ccccc2)NS(=O)(=O)Cc2cccc(C(=O)O)c2)cc1 [compound 4, 3-HOOC-Bzls-d-Ppg-Phe(3-Ame)-4-guanidinobenzylamide×2 acetate]",> 1000,> 1000,< 100,< 10,–,–
N=C(N)c1ccc(CNC(=O)[C@H](Cc2cccc(CN)c2)NC(=O)[C@@H](CC2CCCCC2)NS(=O)(=O)Cc2ccccc2)cc1 [compound 20],< 100,< 1000,< 10,< 10,–,–
N=C(N)c1ccc(CNC(=O)[C@H](Cc2cccc(CN)c2)NC(=O)[C@@H](CCCCN)NS(=O)(=O)Cc2ccccc2)cc1 [compound 59],< 1000,> 1000,< 100,< 10,–,–
N=C(N)c1ccc(CNC(=O)[C@H](CCc2ccccc2)NC(=O)[C@@H](CCCc2ccncc2)NS(=O)(=O)Cc2ccccc2)cc1 [compound 49],< 100,< 100,< 10,< 10,–,–
N=C(N)c1ccc(CNC(=O)[C@H](CCCc2ccccc2)NC(=O)[C@@H](CCc2ccncc2)NS(=O)(=O)Cc2ccccc2)cc1 [compound 48],< 10,< 1000,< 10,< 10,–,–
COc1ccc(CCC[C@@H](NS(=O)(=O)Cc2ccccc2)C(=O)N[C@@H](Cc2cccc(CN)c2)C(=O)NCc2ccc(C(=N)N)cc2)cc1 [compound 10],< 100,< 1000,< 10,< 10,–,–
N=C(N)c1ccc(CC[C@H](NC(=O)[C@@H](CC2CCCCC2)NS(=O)(=O)Cc2ccccc2)C(=O)NCc2ccc(C(=N)N)cc2)cc1 [compound 38],< 100,< 10,< 10,< 100,< 5,–
N=C(N)c1ccc(CNC(=O)[C@H](Cc2c[nH]cn2)NC(=O)[C@@H](CCCc2ccccc2)NS(=O)(=O)Cc2cccc(C(=O)O)c2)cc1 [compound 33],< 1000,> 1000,< 10,< 100,–,–
CC(C)(C)OC(=O)NCCCC[C@@H](NS(=O)(=O)Cc1ccccc1)C(=O)N[C@@H](Cc1cccc(CN)c1)C(=O)NCc1ccc(C(=N)N)cc1 [compound 57],< 100,> 1000,< 10,< 10,–,–
N=C(N)c1ccc(CNC(=O)[C@H](Cc2cccc(CN)c2)NC(=O)[C@@H](CCCc2ccc(C(F)(F)F)cc2)NS(=O)(=O)Cc2ccccc2)cc1 [compound 11],< 10,< 1000,< 10,< 10,–,–
N=C(N)c1ccc(CNC(=O)[C@H](Cc2c[nH]cn2)NC(=O)[C@@H](CCCc2ccccc2)NS(=O)(=O)Cc2ccccc2)cc1 [compound 32],< 1000,< 100,< 10,< 100,–,–

Compound,Ki [1] [nM],Ki [2] [nM],"Ki [3, 5] [nM]","Ki [4, 6] [nM]","Ki [3, 7] [nM]","Ki [4, 8] [nM]"
N=C(N)c1ccc(CNC(=O)[C@H](Cc2ccc(CN)cc2)NC(=O)[C@@H](CCCc2ccccc2)NS(=O)(=O)Cc2ccc(C(=O)O)cc2)cc1 [compound 29],< 1000,< 1000,< 10,< 10,–,< 1
CC(C)(C)OC(=O)NCCCC[C@@H](NS(=O)(=O)Cc1ccccc1)C(=O)N[C@@H](CCc1ccncc1)C(=O)NCc1ccc(C(=N)N)cc1 [compound 62],< 1000,< 1000,< 10,< 10,–,–
N=C(N)c1ccc(CC[C@H](NC(=O)[C@@H](CO)NS(=O)(=O)Cc2ccccc2)C(=O)NCc2ccc(C(=N)N)cc2)cc1 [compound 78],> 1000,> 1000,< 100,< 10,–,–
CC(C)(C)OC[C@@H](NS(=O)(=O)Cc1ccc(C(=O)O)cc1)C(=O)N[C@@H](Cc1cccc(CN)c1)C(=O)NCc1ccc(C(=N)N)cc1 [compound 65],< 1000,> 1000,< 100,< 10,–,< 1
N=C(N)c1ccc(CNC(=O)[C@H](Cc2cccc(CN)c2)NC(=O)[C@@H](CCCc2ccccc2Cl)NS(=O)(=O)Cc2ccccc2)cc1 [compound 8],< 100,< 100,< 10,< 10,–,–
CC(C)(C)c1ccc(C[C@@H](NS(=O)(=O)Cc2ccccc2)C(=O)N[C@@H](Cc2cccc(CN)c2)C(=O)NCc2ccc(C(=N)N)cc2)cc1 [compound 13],< 100,< 1000,< 100,< 10,< 5,–
N=C(N)c1ccc(CNC(=O)[C@H](Cc2cccc(CN)c2)NC(=O)[C@H](NS(=O)(=O)Cc2ccccc2)C(c2ccccc2)c2ccccc2)cc1 [compound 22],< 100,< 10,< 10,< 10,–,–
N=C(N)c1ccc(CNC(=O)[C@H](CCc2cc[n+]([O-])cc2)NC(=O)[C@@H](CCCc2ccccc2)NS(=O)(=O)Cc2ccccc2)cc1 [compound 41],< 1000,< 100,< 10,< 10,–,–
COC(=O)c1ccc(CS(=O)(=O)N[C@H](COC(C)(C)C)C(=O)N[C@@H](Cc2cccc(CN)c2)C(=O)NCc2ccc(C(=N)N)cc2)cc1 [compound 64],> 1000,> 1000,< 10,< 10,–,< 1
N=C(N)c1ccc(CNC(=O)[C@H](Cc2cccc(CN)c2)NC(=O)[C@@H](Cc2cccc3ccccc23)NS(=O)(=O)Cc2ccc(C(=O)O)cc2)cc1 [compound 16],< 1000,< 1000,< 10,< 10,–,–
CC(C)(C)OC(=O)NC[C@@H](NS(=O)(=O)Cc1ccccc1)C(=O)N[C@@H](Cc1cccc(CN)c1)C(=O)NCc1ccc(C(=N)N)cc1 [compound 60],< 1000,> 1000,< 100,< 10,–,–
N=C(N)c1ccc(CNC(=O)[C@H](CCc2ccccc2)NC(=O)[C@@H](CCCc2cc[n+]([O-])cc2)NS(=O)(=O)Cc2ccccc2)cc1 [compound 53],< 10,< 100,< 10,< 10,–,–
N=C(N)c1ccc(CNC(=O)[C@H](Cc2cccc(CN)c2)NC(=O)[C@H](NS(=O)(=O)Cc2cccc(C(=O)O)c2)C(c2ccccc2)c2ccccc2)cc1 [compound 23],< 100,< 100,< 10,< 10,–,–
Bzls-d-Gly(3-O-Phpr)-Phe(3-Ame)-4-Amba×2 TFA [compound 6],< 100,< 1000,< 10,< 10,–,–
N=C(N)c1ccc(CNC(=O)[C@H](Cc2cccc(CN)c2)NC(=O)[C@@H](CO)NS(=O)(=O)Cc2ccccc2)cc1 [compound 68],> 1000,> 1000,< 100,< 10,–,–
CC(C)(C)OC[C@@H](NS(=O)(=O)Cc1cccc(C(=O)O)c1)C(=O)N[C@@H](Cc1cccc(CN)c1)C(=O)NCc1ccc(C(=N)N)cc1 [compound 67],< 100,> 1000,< 10,< 10,–,–
CC(C)(C)OC[C@@H](NS(=O)(=O)Cc1ccccc1)C(=O)N[C@@H](CCc1ccc(C(=N)N)cc1)C(=O)NCc1ccc(C(=N)N)cc1 [compound 77],< 1000,< 100,< 10,< 10,–,–
CC(C)(C)OC[C@@H](NS(=O)(=O)Cc1ccccc1)C(=O)N[C@@H](Cc1cccc(CN)c1)C(=O)NCc1ccc(C(=N)N)cc1 [compound 71],> 1000,–,–,–,–,–
